Where a name gives a salt, the structure may show the parent alone.
Each compound was assayed against Carbonic anhydrase 2 (Homo sapiens, UniProt P00918) (assay: In vitro binding of inhibitor to hCA-II). Settings: not given.
Description: Inhibitor binding to CA II was determined using a fluorescence competition assay. Displacement of dansylamide and binding of the inhibitor was determined by measuring and comparing the average fluorescence intensities of the treated versus control reactions. Binding constants were estimated from a Dixon plot of the data (reciprocal of the average fluorescence intensity versus inhibitor concentration)
With C#CCNCC1=Cc2cc(S(N)(=O)=O)sc2S(=O)(=O)N1CCC [1,1-dioxo-3-[(prop-2-yn-1-ylamino)methyl]-2-propyl-2H-1,7,2-thieno[3,2-e][1,2]thiazine-6-sulfonamide] the Ki was 100 pM.
C#CCNCC1=Cc2cc(S(N)(=O)=O)sc2S(=O)(=O)N1c1cccc(O)c1 [2-(3-hydroxyphenyl)-1,1-dioxo-3-[(prop-2-yn-1-ylamino)methyl]-2H-1,7,2-thieno[3,2-e][1,2]thiazine-6-sulfonamide hydrochloride] gave a Ki of 160 pM.
NS(=O)(=O)c1cc2c(s1)S(=O)(=O)N(CC1CC1)C(CN1CCOCC1)=C2 [2-(cyclopropylmethyl)-3-(morpholin-4-ylmethyl)-1,1-dioxo-2H-1,7,2-thieno[3,2-e][1,2]thiazine-6-sulfonamide hydrochloride] showed a Ki of 300 pM.
With C=CCN1C(CN2CCOCC2)=Cc2cc(S(N)(=O)=O)sc2S1(=O)=O [3-(morpholin-4-ylmethyl)-1,1-dioxo-2-(prop-2-en-1-yl)-2H-1,7,2-thieno[3,2-e][1,2]thiazine-6-sulfonamide] the Ki was 160 pM.
Work on COCCCN1C(CNC2CC2)=Cc2cc(S(N)(=O)=O)sc2S1(=O)=O [3-[(cyclopropylamino)methyl]-2-(3-methoxypropyl)-1,1-dioxo-2H-1,7,2-thieno[3,2-e][1,2]thiazine-6-sulfonamide hydrochloride] yielded a Ki of 260 pM.
For COc1cccc(N2C(CNCCO)=Cc3cc(S(N)(=O)=O)sc3S2(=O)=O)c1 [3-{[(2-hydroxyethyl)amino]methyl}-2-(3-methoxyphenyl)-1,1-dioxo-2H-1,7,2-thieno[3,2-e][1,2]thiazine-6-sulfonamide hydrochloride], the Ki was 110 pM.
Work on CCCN1C(CN(CCOC)CCOC)=Cc2cc(S(N)(=O)=O)sc2S1(=O)=O [3-{[bis(2-methoxyethyl)amino]methyl}-1,1-dioxo-2-propyl-2H-1,7,2-thieno[3,2-e][1,2]thiazine-6-sulfonamide hydrochloride] yielded a Ki of 150 pM.
In the case of CCN1C(CN(CCO)CCO)=Cc2cc(S(N)(=O)=O)sc2S1(=O)=O [Compound 17b4], the Ki is reported as 330 pM.
Compound CCCN1C(CN2CCOCC2)=Cc2cc(S(N)(=O)=O)sc2S1(=O)=O [Compound 17c1] has a Ki of 270 pM.
Compound CC(C)N1C(CN2CCOCC2)=Cc2cc(S(N)(=O)=O)sc2S1(=O)=O [Compound 17d1] has a Ki of 330 pM.
Compound C#CCNCC1=Cc2cc(S(N)(=O)=O)sc2S(=O)(=O)N1C(C)C [Compound 17d8] has a Ki of 470 pM.
Compound NS(=O)(=O)c1cc2c(s1)S(=O)(=O)N(C1CCCCC1)C(CN1CCOCC1)=C2 [Compound 17g1] has a Ki of 310 pM.
COCCN1C(CN2CCOCC2)=Cc2cc(S(N)(=O)=O)sc2S1(=O)=O [Compound 17h1] was tested, and the Ki was 220 pM.
With COCCN(CCOC)CC1=Cc2cc(S(N)(=O)=O)sc2S(=O)(=O)N1CCOC [Compound 17h2] the Ki was 210 pM.
COCCCN1C(CN2CCOCC2)=Cc2cc(S(N)(=O)=O)sc2S1(=O)=O [Compound 17i1] was tested, and the Ki was 250 pM.
Compound COCCCN1C(Cn2ccnc2)=Cc2cc(S(N)(=O)=O)sc2S1(=O)=O [Compound 17i10] has a Ki of 120 pM.
Work on COc1ccc(CN2C(CN3CCOCC3)=Cc3cc(S(N)(=O)=O)sc3S2(=O)=O)cc1 [Compound 17j1] yielded a Ki of 110 pM.
Work on COc1ccc(N2C(CN3CCOCC3)=Cc3cc(S(N)(=O)=O)sc3S2(=O)=O)cc1OC [Compound 17m1] yielded a Ki of 80 pM.
In the case of NS(=O)(=O)c1cc2c(s1)S(=O)(=O)N(c1ccc(N3CCOCC3)cc1)C(CN1CCOCC1)=C2 [Compound 17n1], the Ki is reported as 120 pM.
With NS(=O)(=O)c1cc2c(s1)S(=O)(=O)N(CCCO)C(CN1CCOCC1)=C2 [Compound 17o1] the Ki was 200 pM.
For CN1C(CN2CCOCC2)=Cc2sc(S(N)(=O)=O)cc2S1(=O)=O [Compound 25], the Ki was 210 pM.

Same assay, conditions: pH 7.4; 37 °C
With COc1cccc(N2C(CN3CCOCC3)=Cc3cc(S(N)(=O)=O)sc3S2(=O)=O)c1 [2-(3-Methoxyphenyl)-3-[(4-morpholinyl)methyl]-2H-thieno-[3,2-e]-1,2-thiazine-6-sulfonamide 1,1-dioxide] the Ki was 150 pM.
CCN1C(CN2CCOCC2)=Cc2cc(S(N)(=O)=O)sc2S1(=O)=O [2-Ethyl-3-[(4-morpholinyl)methyl]-2H-thieno[3,2-e]-1,2-thiazine-6-sulfonamide 1,1-dioxide hydrochloride] gave a Ki of 210 pM.
CCN1C(CN(CCOC)CCOC)=Cc2cc(S(N)(=O)=O)sc2S1(=O)=O [2-Ethyl-3-[[bis(2-methoxyethyl)amino]methyl]-2H-thieno-[3,2-e]-1,2-thiazine-6-sulfonamide 1,1-dioxide hydrochloride] was tested, and the Ki was 210 pM.
CCCNCCN1C=Cc2cc(S(N)(=O)=O)sc2S1(=O)=O [2-[2-(Propylamino)ethyl]-2H-thieno[3,2-e]-1,2-thiazine-6-sulfonamide 1,1-dioxide hydrochloride] was tested, and the Ki was 520 pM.
NS(=O)(=O)c1cc2c(s1)S(=O)(=O)N(C/C=C/CN1CCOCC1)C=C2 [2-[(2E)-4-(morpholin-4-yl)but-2-en-1-yl]-1,1-dioxo-2H-1,7,2-thieno[3,2-e][1,2]thiazine-6-sulfonamide hydrochloride] showed a Ki of 240 pM.
With CN1C(CN2CCOCC2)=Cc2cc(S(N)(=O)=O)sc2S1(=O)=O [2-methyl-3-(morpholin-4-ylmethyl)-1,1-dioxo-2H-1,7,2-thieno[3,2-e][1,2]thiazine-6-sulfonamide hydrochloride] the Ki was 260 pM.
Work on COCCN(CCOC)CCN1C=Cc2cc(S(N)(=O)=O)sc2S1(=O)=O [2-{2-[bis(2-methoxyethyl)amino]ethyl}-1,1-dioxo-2H-1,7,2-thieno[3,2-e][1,2]thiazine-6-sulfonamide hydrochloride] yielded a Ki of 340 pM.
COCCN(C)CC1=Cc2cc(S(N)(=O)=O)sc2S(=O)(=O)N1C [3-[N-(2-Methoxyethyl)-N-methylamino]methyl]-2-methyl-2H-thieno[3,2-e]-1,2-thiazine-6-sulfonamide 1,1-dioxide] showed a Ki of 150 pM.
COCCCN(CCOC)CC1=Cc2cc(S(N)(=O)=O)sc2S(=O)(=O)N1C [3-{[(2-methoxyethyl)(3-methoxypropyl)amino]methyl}-2-methyl-1,1-dioxo-2H-1,7,2-thieno[3,2-e][1,2]thiazine-6-sulfonamide hydrochloride] showed a Ki of 80 pM.
For NS(=O)(=O)c1cc2c(s1)S(=O)(=O)N(CCN1CCOCC1)C=C2 [Compound 5b], the Ki was 320 pM.
In the case of CC(=O)N1CCN(CCN2C=Cc3cc(S(N)(=O)=O)sc3S2(=O)=O)CC1 [Compound 5c], the Ki is reported as 250 pM.
With C=CCN(CCOC)CC1=Cc2cc(S(N)(=O)=O)sc2S(=O)(=O)N1C [Compound 17a7] the Ki was 100 pM.
